Laboratory results as given in paper PMC10905675, “INX-315, a Selective CDK2 Inhibitor, Induces Cell Cycle Arrest and Senescence in Solid Tumors” (Cancer Discovery, 2023).

Columns and labels:
Experiment in all cases: SelectScreen ZLYTE
Type in all cases: biochemical
Conditions in all cases: INX-0315 at 100nM
[1] = biological target: T1, MAP4K4 (HGK) (Homo sapiens, UniProt O95819)
T1 construct: purchased Thermo Fisher Scientific SelectScreen (plus Nanosyn / Reaction Biology for CDK/cyclin lines)
Procedure, shortened: (§1)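 A single-dose pass at 100 nmol/L INX-315 in 1% DMSO came first. Curves of 10 points from 1 µmol/L to 0.0495 nmol/L followed, using standard predetermined assay settings.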

[2] = biological target: T2, GSK3B (GSK3 beta) (Homo sapiens, UniProt P49841)
T2 construct: purchased Thermo Fisher Scientific SelectScreen (plus Nanosyn / Reaction Biology for CDK/cyclin lines)
Procedure, shortened: as §1

[3] = biological target: T3, BRAF (Homo sapiens, UniProt P15056)
T3 construct: purchased Thermo Fisher Scientific SelectScreen (plus Nanosyn / Reaction Biology for CDK/cyclin lines)
Procedure, shortened: as §1

[4] = biological target: T4, MAP2K2 (MEK2) (Homo sapiens, UniProt P36507)
T4 construct: purchased Thermo Fisher Scientific SelectScreen (plus Nanosyn / Reaction Biology for CDK/cyclin lines)
Procedure, shortened: as §1

[5] = biological target: T5, CDC42 BPB (MRCKB) (Homo sapiens, UniProt Q9Y5S2)
T5 construct: purchased Thermo Fisher Scientific SelectScreen (plus Nanosyn / Reaction Biology for CDK/cyclin lines)
Procedure, shortened: as §1

[6] = biological target: T6, IGF1R (Homo sapiens, UniProt P08069)
T6 construct: purchased Thermo Fisher Scientific SelectScreen (plus Nanosyn / Reaction Biology for CDK/cyclin lines)
Procedure, shortened: as §1

[7] = biological target: T7, PIM3 (Homo sapiens, UniProt Q86V86)
T7 construct: purchased Thermo Fisher Scientific SelectScreen (plus Nanosyn / Reaction Biology for CDK/cyclin lines)
Procedure, shortened: as §1

[8] = biological target: T8, NEK2 (Homo sapiens, UniProt P51955)
T8 construct: purchased Thermo Fisher Scientific SelectScreen (plus Nanosyn / Reaction Biology for CDK/cyclin lines)
Procedure, shortened: as §1

[9] = biological target: T9, TXK (Homo sapiens, UniProt P42681)
T9 construct: purchased Thermo Fisher Scientific SelectScreen (plus Nanosyn / Reaction Biology for CDK/cyclin lines)
Procedure, shortened: as §1

[10] = biological target: T10, EGFR (ErbB1) G719S (Homo sapiens, UniProt P00533, G719S)
T10 construct: purchased Thermo Fisher Scientific SelectScreen (plus Nanosyn / Reaction Biology for CDK/cyclin lines)
Procedure, shortened: as §1

[11] = biological target: T11, MAP3K19 (YSK4) (Homo sapiens, UniProt Q56UN5)
T11 construct: purchased Thermo Fisher Scientific SelectScreen (plus Nanosyn / Reaction Biology for CDK/cyclin lines)
Procedure, shortened: as §1

[12] = biological target: T12, EGFR (ErbB1) T790M C797S L858R (Homo sapiens, UniProt P00533, C797S/L858R/T790M)
T12 construct: purchased Thermo Fisher Scientific SelectScreen (plus Nanosyn / Reaction Biology for CDK/cyclin lines)
Procedure, shortened: as §1

[13] = biological target: T13, CLK2 (Homo sapiens, UniProt P49760)
T13 construct: purchased Thermo Fisher Scientific SelectScreen (plus Nanosyn / Reaction Biology for CDK/cyclin lines)
Procedure, shortened: as §1

[14] = biological target: T14, EPHB4 (Homo sapiens, UniProt P54760)
T14 construct: purchased Thermo Fisher Scientific SelectScreen (plus Nanosyn / Reaction Biology for CDK/cyclin lines)
Procedure, shortened: as §1

[15] = biological target: T15, LCK (Homo sapiens, UniProt P06239)
T15 construct: purchased Thermo Fisher Scientific SelectScreen (plus Nanosyn / Reaction Biology for CDK/cyclin lines)
Procedure, shortened: as §1

[16] = biological target: T16, MKNK1 (MNK1) (Homo sapiens, UniProt Q9BUB5)
T16 construct: purchased Thermo Fisher Scientific SelectScreen (plus Nanosyn / Reaction Biology for CDK/cyclin lines)
Procedure, shortened: as §1

[17] = biological target: T17, PDK1 (Homo sapiens, UniProt O15530)
T17 construct: purchased Thermo Fisher Scientific SelectScreen (plus Nanosyn / Reaction Biology for CDK/cyclin lines)
Procedure, shortened: as §1

[18] = biological target: T18, PDGFRA D842V (Homo sapiens, UniProt P16234, D842V)
T18 construct: purchased Thermo Fisher Scientific SelectScreen (plus Nanosyn / Reaction Biology for CDK/cyclin lines)
Procedure, shortened: as §1

[19] = biological target: T19, AMPK (A2/B1/G2) (Homo sapiens, UniProt P54646)
T19 construct: purchased Thermo Fisher Scientific SelectScreen (plus Nanosyn / Reaction Biology for CDK/cyclin lines)
Procedure, shortened: as §1

[20] = biological target: T20, ACVR1B (ALK4) (Homo sapiens, UniProt P36896)
T20 construct: purchased Thermo Fisher Scientific SelectScreen (plus Nanosyn / Reaction Biology for CDK/cyclin lines)
Procedure, shortened: as §1

[21] = biological target: T21, HIPK1 (Myak) (Homo sapiens, UniProt Q86Z02)
T21 construct: purchased Thermo Fisher Scientific SelectScreen (plus Nanosyn / Reaction Biology for CDK/cyclin lines)
Procedure, shortened: as §1

[22] = biological target: T22, SRMS (Srm) (Homo sapiens, UniProt Q9H3Y6)
T22 construct: purchased Thermo Fisher Scientific SelectScreen (plus Nanosyn / Reaction Biology for CDK/cyclin lines)
Procedure, shortened: as §1

[23] = biological target: T23, EPHA8 (Homo sapiens, UniProt P29322)
T23 construct: purchased Thermo Fisher Scientific SelectScreen (plus Nanosyn / Reaction Biology for CDK/cyclin lines)
Procedure, shortened: as §1

[24] = biological target: T24, CSNK1A1 (CK1 alpha 1) (Homo sapiens, UniProt P48729)
T24 construct: purchased Thermo Fisher Scientific SelectScreen (plus Nanosyn / Reaction Biology for CDK/cyclin lines)
Procedure, shortened: as §1

[25] = biological target: T25, CHEK2 (CHK2) (Homo sapiens, UniProt O96017)
T25 construct: purchased Thermo Fisher Scientific SelectScreen (plus Nanosyn / Reaction Biology for CDK/cyclin lines)
Procedure, shortened: as §1

[26] = biological target: T26, HCK (Homo sapiens, UniProt P08631)
T26 construct: purchased Thermo Fisher Scientific SelectScreen (plus Nanosyn / Reaction Biology for CDK/cyclin lines)
Procedure, shortened: as §1

[27] = biological target: T27, AURKC (Aurora C) (Homo sapiens, UniProt Q9UQB9)
T27 construct: purchased Thermo Fisher Scientific SelectScreen (plus Nanosyn / Reaction Biology for CDK/cyclin lines)
Procedure, shortened: as §1

[28] = biological target: T28, MAPK13 (p38 delta) (Homo sapiens, UniProt O15264)
T28 construct: purchased Thermo Fisher Scientific SelectScreen (plus Nanosyn / Reaction Biology for CDK/cyclin lines)
Procedure, shortened: as §1

[29] = biological target: T29, RET S891A (Homo sapiens, UniProt P07949, S891A)
T29 construct: purchased Thermo Fisher Scientific SelectScreen (plus Nanosyn / Reaction Biology for CDK/cyclin lines)
Procedure, shortened: as §1

[30] = biological target: T30, PLK1 (Homo sapiens, UniProt P53350)
T30 construct: purchased Thermo Fisher Scientific SelectScreen (plus Nanosyn / Reaction Biology for CDK/cyclin lines)
Procedure, shortened: as §1

[31] = biological target: T31, KSR2 (Homo sapiens, UniProt Q6VAB6)
T31 construct: purchased Thermo Fisher Scientific SelectScreen (plus Nanosyn / Reaction Biology for CDK/cyclin lines)
Procedure, shortened: as §1

[32] = biological target: T32, CDK5/p25 (Homo sapiens, UniProt Q00535)
T32 construct: purchased BPS 40105
Procedure, shortened: as §1

[33] = biological target: T33, KIT V559D (Homo sapiens, UniProt P10721, V559D)
T33 construct: purchased Thermo Fisher Scientific SelectScreen (plus Nanosyn / Reaction Biology for CDK/cyclin lines)
Procedure, shortened: as §1

[34] = biological target: T34, DCAMKL2 (DCK2) (Homo sapiens, UniProt Q8N568)
T34 construct: purchased Thermo Fisher Scientific SelectScreen (plus Nanosyn / Reaction Biology for CDK/cyclin lines)
Procedure, shortened: as §1

[35] = biological target: T35, JAK2 JH1 JH2 V617F (Homo sapiens, UniProt O60674, V617F)
T35 construct: JAK2 JH1 JH2 V617F; purchased Thermo Fisher Scientific SelectScreen (plus Nanosyn / Reaction Biology for CDK/cyclin lines)
Procedure, shortened: as §1

[36] = biological target: T36, FER (Homo sapiens, UniProt P16591)
T36 construct: purchased Thermo Fisher Scientific SelectScreen (plus Nanosyn / Reaction Biology for CDK/cyclin lines)
Procedure, shortened: as §1

T11 sequence (Q56UN5 whole entry): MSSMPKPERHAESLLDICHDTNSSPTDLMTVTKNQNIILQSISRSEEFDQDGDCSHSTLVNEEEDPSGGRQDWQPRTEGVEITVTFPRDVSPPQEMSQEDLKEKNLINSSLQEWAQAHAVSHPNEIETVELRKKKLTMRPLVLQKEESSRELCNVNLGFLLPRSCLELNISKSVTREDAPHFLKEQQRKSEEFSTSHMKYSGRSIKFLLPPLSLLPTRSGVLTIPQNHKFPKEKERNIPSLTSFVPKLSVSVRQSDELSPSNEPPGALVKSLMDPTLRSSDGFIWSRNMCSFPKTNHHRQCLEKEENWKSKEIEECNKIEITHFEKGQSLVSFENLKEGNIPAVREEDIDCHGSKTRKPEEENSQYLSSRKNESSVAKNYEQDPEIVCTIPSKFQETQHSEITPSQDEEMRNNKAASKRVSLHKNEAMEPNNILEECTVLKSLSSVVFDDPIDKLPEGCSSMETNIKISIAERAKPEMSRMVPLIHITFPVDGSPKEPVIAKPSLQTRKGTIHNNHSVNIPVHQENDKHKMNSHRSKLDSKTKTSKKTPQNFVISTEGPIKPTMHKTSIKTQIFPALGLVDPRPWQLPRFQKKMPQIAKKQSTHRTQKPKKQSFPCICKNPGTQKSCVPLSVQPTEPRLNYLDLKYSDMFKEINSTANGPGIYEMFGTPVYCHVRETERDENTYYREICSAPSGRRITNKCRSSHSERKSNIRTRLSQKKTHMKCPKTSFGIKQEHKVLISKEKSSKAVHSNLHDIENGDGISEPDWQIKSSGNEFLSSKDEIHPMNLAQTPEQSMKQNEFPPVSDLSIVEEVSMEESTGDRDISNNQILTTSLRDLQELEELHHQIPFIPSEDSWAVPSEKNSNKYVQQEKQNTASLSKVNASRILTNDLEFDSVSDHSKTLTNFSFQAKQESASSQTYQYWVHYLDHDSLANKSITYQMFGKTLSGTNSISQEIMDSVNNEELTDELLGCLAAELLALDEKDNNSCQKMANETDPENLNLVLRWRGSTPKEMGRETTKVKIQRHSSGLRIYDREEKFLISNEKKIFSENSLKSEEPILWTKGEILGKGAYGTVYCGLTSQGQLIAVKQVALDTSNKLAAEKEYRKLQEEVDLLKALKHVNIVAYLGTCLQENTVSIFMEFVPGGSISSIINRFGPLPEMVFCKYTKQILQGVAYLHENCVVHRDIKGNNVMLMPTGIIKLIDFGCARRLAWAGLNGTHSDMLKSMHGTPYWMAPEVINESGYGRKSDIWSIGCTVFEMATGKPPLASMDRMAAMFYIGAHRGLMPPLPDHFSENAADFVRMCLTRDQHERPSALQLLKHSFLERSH
T34 sequence (Q8N568 whole entry): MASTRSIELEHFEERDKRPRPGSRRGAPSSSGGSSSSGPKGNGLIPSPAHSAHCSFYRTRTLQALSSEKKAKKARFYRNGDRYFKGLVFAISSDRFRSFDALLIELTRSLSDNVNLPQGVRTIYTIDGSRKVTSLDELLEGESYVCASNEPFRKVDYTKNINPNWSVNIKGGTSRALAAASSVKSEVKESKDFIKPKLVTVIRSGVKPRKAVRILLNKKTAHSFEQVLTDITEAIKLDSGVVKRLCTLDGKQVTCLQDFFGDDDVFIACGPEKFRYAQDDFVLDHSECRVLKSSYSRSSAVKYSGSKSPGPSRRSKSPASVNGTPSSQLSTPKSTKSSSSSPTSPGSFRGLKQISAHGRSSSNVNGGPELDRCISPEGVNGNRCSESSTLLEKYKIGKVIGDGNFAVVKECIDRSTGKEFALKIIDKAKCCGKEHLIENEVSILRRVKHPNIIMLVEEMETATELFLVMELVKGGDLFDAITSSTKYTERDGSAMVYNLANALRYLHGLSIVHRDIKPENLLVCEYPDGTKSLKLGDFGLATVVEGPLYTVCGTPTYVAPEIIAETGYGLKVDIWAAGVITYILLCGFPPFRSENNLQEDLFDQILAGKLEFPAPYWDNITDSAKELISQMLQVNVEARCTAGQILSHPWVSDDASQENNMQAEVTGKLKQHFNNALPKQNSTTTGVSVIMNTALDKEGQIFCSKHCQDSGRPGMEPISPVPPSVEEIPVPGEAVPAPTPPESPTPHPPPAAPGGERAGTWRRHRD
T21 sequence (Q86Z02 whole entry): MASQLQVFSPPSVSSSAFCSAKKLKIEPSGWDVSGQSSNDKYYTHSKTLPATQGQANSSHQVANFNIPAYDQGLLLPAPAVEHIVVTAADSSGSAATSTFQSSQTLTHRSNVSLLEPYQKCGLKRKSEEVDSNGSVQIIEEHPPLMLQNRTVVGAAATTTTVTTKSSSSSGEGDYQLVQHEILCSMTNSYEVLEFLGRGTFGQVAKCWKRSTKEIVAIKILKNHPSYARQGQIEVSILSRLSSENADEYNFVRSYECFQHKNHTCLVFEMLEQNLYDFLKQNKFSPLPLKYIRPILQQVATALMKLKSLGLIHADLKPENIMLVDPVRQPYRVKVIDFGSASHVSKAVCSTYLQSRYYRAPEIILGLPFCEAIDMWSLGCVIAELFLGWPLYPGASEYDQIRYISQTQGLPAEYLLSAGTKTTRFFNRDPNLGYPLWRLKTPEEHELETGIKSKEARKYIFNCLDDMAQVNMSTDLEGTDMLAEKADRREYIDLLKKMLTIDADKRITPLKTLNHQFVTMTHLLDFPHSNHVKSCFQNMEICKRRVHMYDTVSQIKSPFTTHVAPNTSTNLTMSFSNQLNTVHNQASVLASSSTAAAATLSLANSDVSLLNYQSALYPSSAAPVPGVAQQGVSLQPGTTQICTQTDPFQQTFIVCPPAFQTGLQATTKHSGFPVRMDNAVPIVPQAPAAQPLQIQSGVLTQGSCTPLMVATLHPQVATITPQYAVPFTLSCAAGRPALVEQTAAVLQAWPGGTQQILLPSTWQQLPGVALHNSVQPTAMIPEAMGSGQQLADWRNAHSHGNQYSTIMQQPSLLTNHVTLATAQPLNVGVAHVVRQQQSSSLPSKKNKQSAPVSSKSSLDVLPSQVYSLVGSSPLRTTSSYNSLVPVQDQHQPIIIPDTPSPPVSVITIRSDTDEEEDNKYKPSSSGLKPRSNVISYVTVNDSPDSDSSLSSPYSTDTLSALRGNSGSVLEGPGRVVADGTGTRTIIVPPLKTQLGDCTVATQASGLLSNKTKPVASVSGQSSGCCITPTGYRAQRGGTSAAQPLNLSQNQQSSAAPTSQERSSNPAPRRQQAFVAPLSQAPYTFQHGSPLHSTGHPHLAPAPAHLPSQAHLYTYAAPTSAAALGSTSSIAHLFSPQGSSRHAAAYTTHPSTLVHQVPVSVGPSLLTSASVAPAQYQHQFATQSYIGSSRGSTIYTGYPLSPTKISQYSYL
T36 sequence (P16591 whole entry): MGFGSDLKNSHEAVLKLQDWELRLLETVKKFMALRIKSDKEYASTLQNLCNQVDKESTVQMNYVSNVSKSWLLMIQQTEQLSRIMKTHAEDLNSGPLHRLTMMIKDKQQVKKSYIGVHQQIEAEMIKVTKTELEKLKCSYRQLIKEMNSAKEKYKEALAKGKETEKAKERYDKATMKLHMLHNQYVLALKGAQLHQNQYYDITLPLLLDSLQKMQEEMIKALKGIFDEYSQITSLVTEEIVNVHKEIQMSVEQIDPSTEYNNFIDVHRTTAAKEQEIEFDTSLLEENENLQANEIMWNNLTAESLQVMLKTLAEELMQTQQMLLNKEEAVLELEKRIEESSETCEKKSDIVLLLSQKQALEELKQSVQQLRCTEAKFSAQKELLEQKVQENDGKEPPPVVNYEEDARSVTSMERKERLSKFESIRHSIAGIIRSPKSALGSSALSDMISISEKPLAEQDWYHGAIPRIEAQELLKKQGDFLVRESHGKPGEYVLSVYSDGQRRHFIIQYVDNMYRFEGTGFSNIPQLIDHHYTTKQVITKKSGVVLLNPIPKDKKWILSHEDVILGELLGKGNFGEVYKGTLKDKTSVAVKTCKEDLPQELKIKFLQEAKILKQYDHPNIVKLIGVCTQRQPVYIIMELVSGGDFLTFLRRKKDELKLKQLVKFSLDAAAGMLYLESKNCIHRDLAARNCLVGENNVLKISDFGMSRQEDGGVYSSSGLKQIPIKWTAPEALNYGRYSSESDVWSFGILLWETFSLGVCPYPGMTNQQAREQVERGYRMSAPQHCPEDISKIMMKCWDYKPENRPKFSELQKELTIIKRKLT
T27 sequence (Q9UQB9 whole entry): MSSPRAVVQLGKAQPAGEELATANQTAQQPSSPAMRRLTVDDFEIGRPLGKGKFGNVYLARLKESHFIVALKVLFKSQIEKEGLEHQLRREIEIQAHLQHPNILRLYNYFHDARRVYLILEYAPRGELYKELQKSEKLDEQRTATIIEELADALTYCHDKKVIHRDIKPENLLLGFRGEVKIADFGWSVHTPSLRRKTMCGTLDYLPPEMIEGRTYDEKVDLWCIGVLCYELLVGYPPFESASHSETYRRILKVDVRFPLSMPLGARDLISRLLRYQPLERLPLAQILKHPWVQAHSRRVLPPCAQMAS
T22 sequence (Q9H3Y6 whole entry): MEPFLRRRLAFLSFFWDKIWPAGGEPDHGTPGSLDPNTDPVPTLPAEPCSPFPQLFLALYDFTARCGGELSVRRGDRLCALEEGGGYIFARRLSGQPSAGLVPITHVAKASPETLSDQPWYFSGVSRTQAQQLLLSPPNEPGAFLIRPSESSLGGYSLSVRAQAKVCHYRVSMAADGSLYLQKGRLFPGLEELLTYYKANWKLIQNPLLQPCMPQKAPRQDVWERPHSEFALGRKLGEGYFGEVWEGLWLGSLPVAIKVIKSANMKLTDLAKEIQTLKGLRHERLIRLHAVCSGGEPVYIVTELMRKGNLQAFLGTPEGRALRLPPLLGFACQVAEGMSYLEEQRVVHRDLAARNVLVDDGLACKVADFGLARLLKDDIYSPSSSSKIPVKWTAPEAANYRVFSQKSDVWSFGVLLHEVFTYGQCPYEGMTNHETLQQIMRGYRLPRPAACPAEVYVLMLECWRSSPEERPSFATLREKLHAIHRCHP

## NS(=O)(=O)c1ccc(Nc2ncc3cc4n(c3n2)C2(CCCCC2)C(=O)NN4)cc1 [INX-315]
[1]
  inhibition at 0.1 µM: 23%
[2]
  inhibition at 0.1 µM: 17%
[3]
  inhibition at 0.1 µM: 11%
[4]
  inhibition at 0.1 µM: 17%
[5]
  inhibition at 0.1 µM: -1%
[6]
  inhibition at 0.1 µM: 9%
[7]
  inhibition at 0.1 µM: 8%
[8]
  inhibition at 0.1 µM: 3%
[9]
  inhibition at 0.1 µM: 7%
[10]
  inhibition at 0.1 µM: 4%
[11]
  inhibition at 0.1 µM: 13%
[12]
  inhibition at 0.1 µM: 3%
[13]
  inhibition at 0.1 µM: 8%
[14]
  inhibition at 0.1 µM: 6%
[15]
  inhibition at 0.1 µM: 19%
[16]
  inhibition at 0.1 µM: 3%
[17]
  inhibition at 0.1 µM: 7%
[18]
  inhibition at 0.1 µM: 13%
[19]
  inhibition at 0.1 µM: 20%
[20]
  inhibition at 0.1 µM: -2%
[21]
  inhibition at 0.1 µM: 6%
[22]
  inhibition at 0.1 µM: 17%
[23]
  inhibition at 0.1 µM: 16%
[24]
  inhibition at 0.1 µM: 5%
[25]
  inhibition at 0.1 µM: 7%
[26]
  inhibition at 0.1 µM: 10%
[27]
  inhibition at 0.1 µM: 53%
[28]
  inhibition at 0.1 µM: 5%
[29]
  inhibition at 0.1 µM: 46%
[30]
  inhibition at 0.1 µM: 4%
[31]
  inhibition at 0.1 µM: 7%
[32]
  inhibition at 0.1 µM: 93%
[33]
  inhibition at 0.1 µM: 21%
[34]
  inhibition at 0.1 µM: -1%
[35]
  inhibition at 0.1 µM: 39%
[36]
  inhibition at 0.1 µM: 13%
